Article PMC7508748, “Active tyrosine phenol-lyase aggregates induced by terminally attached functional peptides in Escherichia coli” (Journal of Industrial Microbiology & Biotechnology, 2020)

Assays:
Assay in all cases: Lineweaver-Burk, initial rates
Format in all cases: biochemical
Conditions in all cases: 20 °C, PLP 30 µM, 0.1-6 mM L-DOPA
TPL-EAK16 = test system: TPL-EAK16
TPL-GFIL16 = test system: TPL-GFIL16
TPL-ELP10 = test system: TPL-ELP10
TPL-DKL6 = test system: TPL-DKL6
TPL-18A = test system: TPL-18A
Description: Lineweaver-Burk, initial rates on TPL-18A | The Vmax of TPL-DKL6, TPL-ELP10, TPL-EAK16, TPL-18A, and TPL-GFIL16 was higher

TPL = test system: T1, TPL
T1 construct: 6xHis tag kept, pET28a, E. coli BL21(DE3) host, His-Trap purified; 52 kDa; tetramer

- Km (TPL-EAK16): 2360 ± 26 µM
- Km (TPL-GFIL16): 2220 ± 14 µM
- Km (TPL-ELP10): 2680 ± 129 µM
- Km (TPL-DKL6): 2320 ± 504 µM
- Km (TPL-18A): 2180 ± 356 µM
- Km (TPL): 2190 µM
Structure (SMILES): N[C@@H](Cc1ccc(O)c(O)c1)C(=O)O [L-DOPA]
